Measurements from ChEMBL document CHEMBL3507680, “University of Dundee, Gates Library screen for HepG2 cell viability”.

Assay: Human HepG2 cell viability assay in 384 well format
Format: toxicity, cell-based
Design: dose 125 nL, time 70.5 hour; cytotoxicity at 70.5 h: concentration not given beside the values
Conditions: HepG2 cells, read-out: Inhibition

Structure (SMILES)	cytotoxicity at 70.5 h [%]
CCc1nnc2n1CCN(C(C(=O)N(CC)CC)c1ccccc1)C2 (stereo unspecified)	-12.7
COc1ccc(CNC(=O)c2ccoc2CN2CCNC(=O)C2)cc1	22.4
CC1Oc2c(cccc2C(=O)N2CCN(CC(C)(C)O)CC2)NC1=O (stereo unspecified)	-10.7
CCC(O)CN1CCN(C(=O)c2cccc3c2OCC(=O)N3)CC1 (stereo unspecified)	27.7
O=C(Cc1ccc(-n2cnnn2)cc1)Nc1cnn(CC(F)F)c1	-15.7
CSCC(CCO)Nc1nc(C(F)F)nc2ccccc12 (stereo unspecified)	-7.1
O=C(O)CCc1ccc(S(=O)(=O)Nc2cnn(CC(F)(F)F)c2)cc1	-5.48
CC(C)NC1CCN(CCc2ccc3c(c2)CCO3)CC1	9.93
CC(=O)Nc1nc(CNc2ccccc2CCC(F)(F)F)cs1	-12
CC(C)n1nnnc1-c1ccc(NC(=O)C(C)(C)C#N)cc1F	4.99
CCC(CO)Nc1nc(C(F)F)nc2ccccc12 (stereo unspecified)	-11.3
Cc1ccccc1-n1nccc1NC(=O)CCOC(C)C	11.4
CCOCCOC(C)C(=O)Nc1ccnn1-c1ccccc1C (stereo unspecified)	-4.2
O=C(c1cc(C2CCCC2)no1)N1CCCCC1	-15.8
NC(c1ccccc1)c1ccc(OC(F)F)cc1 (stereo unspecified)	6.42
CC(C)c1noc(CCC(=O)Nc2cc(F)ccc2F)n1	12.9
CC(C)c1noc(C[S+]([O-])CC(=O)Nc2cc(F)ccc2F)n1 (stereo unspecified)	-3.52
Cc1ccc(NC(=O)C2CCCN2C(=O)C2CC2)nc1 (stereo unspecified)	-3.51
O=C(CCOc1ccccc1)NS(=O)(=O)Cc1ccccc1	-5.31
COCCNC(=O)CN1CCN(c2nc3cc(C)ccc3o2)CC1	-1.86
Cc1ccc(CN(C)C(=O)NCC(=O)NC(C)(C)C)s1	-3.18
O=C1CC(C(=O)Nc2nnc(-c3ccoc3)[nH]2)c2ccccc2N1 (stereo unspecified)	0.202

Structure (SMILES)	cytotoxicity at 70.5 h [%]
O=C(c1cscn1)N(CCCO)S(=O)(=O)c1cccs1	0.658
CCNC(=O)NC1CCC(Oc2ccccc2C#N)CC1 (stereo unspecified)	9.88
COc1cc(Br)cc(CNC2CCCNC2=O)c1O (stereo unspecified)	2.96
Cc1ncc(S(=O)(=O)Nc2ccnn2C2CCCCC2)[nH]1	-1.01
COC(C)c1cccc(NCc2cccs2)c1 (stereo unspecified)	-3.58
CN(C)C1(C(=O)NC2CCC(Oc3ccccc3C#N)CC2)CCC1 (stereo unspecified)	-4.33
COCCN1CCN(CC2(O)CCCCC2)CC1	-0.488
Cc1cc(C2CCCN(C(=O)COc3ccc(F)cc3)C2)n[nH]1 (stereo unspecified)	-8.58
COCCN(C)CC1CCCN1S(=O)(=O)c1cc(C)oc1C (stereo unspecified)	-4.11
Cc1cc(C)n(CC2CCN(CC(O)Cn3cccn3)CC2)n1 (stereo unspecified)	-1.67
Cc1cc(C2CCCN(Cc3noc(Cc4ccccc4)n3)C2)n[nH]1 (stereo unspecified)	-1
Cc1cc(C)c2cc(C(=O)N3CCNC(=O)C3)[nH]c2c1	-8
CCCn1nnnc1COC(=O)C1COc2ccc(Cl)cc2C1 (stereo unspecified)	-5.74
CC(C(=O)Nc1nccs1)N(C)Cc1cccc(C#N)c1 (stereo unspecified)	-11.6
CCOc1ccccc1CCC(=O)Nc1c(C)nn(C)c1C	14.5
COC1CCN(c2ccc(F)cc2CN(C)C(=O)c2cc[nH]n2)CC1	-13.3
Cc1nnc2n1CCN(C(=O)C(C)Oc1ccc(C#N)cc1)C2 (stereo unspecified)	-12.4
CCN(C(=O)CS(=O)(=O)c1cc(OC)c(OC)cc1C)C1CC1	-8.45
COc1cc(C)c(S(=O)(=O)CC(=O)N(C)C2CC2)cc1OC	15.2
CCc1oc(C(=O)N[C@@H]2c3ccccc3C[C@@H]2O)cc1C	-5.26
COc1ccc(CN(C)Cc2c(C)noc2C)c(Br)c1OC	-8.43
COCc1cccc(NCc2cccnc2)c1	-10.4

Structure (SMILES)	cytotoxicity at 70.5 h [%]
COc1ccc(CN(C)Cc2c(C)noc2C)c(Cl)c1OC	-8.81
CCCN1CCC(N(C)CCC(=O)Nc2ccccc2SC)CC1	1.62
O=C1CCCN1CCN1CCC(c2ccn[nH]2)CC1	-7.63
Cc1nc(-c2ccc(CC(=O)N3CCN(C(=O)C(C)C)CC3)cc2)cs1	-1.97
Cc1nc(-c2ccc(CC(=O)N3CCN(C(=O)C4CC4)CC3)cc2)cs1	-1.62
CC(=O)N1CCC(NC(=O)c2cc(Cl)ccc2-n2cnnn2)CC1	-6.61
O=C(NC1CCN(C2CC2)CC1)c1cc(Cl)ccc1-n1cnnn1	8.23
COc1ccc(C2CCCN2C(=O)c2ccc(=O)n(C)c2)cc1OC (stereo unspecified)	-6.18
COc1cccc(CNCc2c(C)nc3sc(C)cn23)c1OC	-1.69
Cn1ccnc1CCNS(=O)(=O)c1ccc(Br)cc1	9.92
CC1CN(C(=O)C2(c3cccc(F)c3)CCOCC2)CCO1 (stereo unspecified)	-3.81
O=C(c1ccc(CN2CCCC2)cc1)N1CCCC(n2cccn2)C1 (stereo unspecified)	-5.06
CN(C)Cc1ccc(C(=O)N2CCCC(n3cccn3)C2)cc1 (stereo unspecified)	8.2
CCN(CC)C(=O)CCNC(=O)c1c[nH]c2ccc(OC)cc12	1.48
CSc1ccc(CNC2(c3ccc(F)cc3)CCOCC2)cc1	-3.89
CC(=O)N1CCC(NC(=O)c2cc(Cl)ccc2O)CC1	-4.41
Cc1nccn1CCCC(=O)Nc1nc(C(C)C)nn1C	10.2
Cc1nc(CNC(=O)NCCC2=CCCC2)oc1C	7.64
CCc1nc2n(n1)CC(NCc1cn(C)nc1-c1cccnc1)CC2 (stereo unspecified)	-4.07
CCc1n[nH]c(C2CN(CC(=O)N(C)Cc3ccco3)CCO2)n1 (stereo unspecified)	-11.1
O=C1CCCN1CCN1CCCC(c2ccn[nH]2)C1 (stereo unspecified)	27.7
O=C(NCCNS(=O)(=O)c1cccc(Cl)c1)C1CCCO1 (stereo unspecified)	6.97

Structure (SMILES)	cytotoxicity at 70.5 h [%]
Cc1nnc(CSc2ccc(C(F)(F)F)cn2)o1	2.72
Cc1noc(CSc2ccc(C(F)(F)F)cn2)n1	-6.64
COCCS(=O)(=O)Cc1nnnn1-c1ccccc1	-2.53
COc1ccnc(N2CCN(Cc3ncc(-c4ccccc4)o3)CC2)n1	4.14
CC(C(=O)N1CCN(CCOc2ccccc2)CC1)n1cncn1 (stereo unspecified)	9.32
CCn1cnnc1CNC(=O)N(C)Cc1cccc(Cl)c1Cl	-6.25
CNS(=O)(=O)c1ccc(CNC(=O)Nc2ccccn2)s1	3.18
Cc1n[nH]c(C)c1CNC(=O)NC1CCCCC1	-8.57
Cc1noc(C)c1CN(C)Cc1csc(-c2ncccn2)n1	-3.82
CC(C)(C)OC(=O)N1CCC(NC2CCS(=O)(=O)C2)CC1 (stereo unspecified)	-8.07
O=C(NCCCC(=O)N1Cc2ccccc2C1)NCc1cccnc1	-0.375
CCN(CC)C(=O)Nc1ccc(N2CCSCC2)cc1C	8.14
O=C(NCCCC(=O)N1Cc2ccccc2C1)NCc1nccs1	-5.34
Cc1csc(C2(NC(=O)NCCN3CCOCC3)CCCC2)n1	-7.84
O=C(NCC1CCC2(CC1)OCCO2)c1ccncc1F	-3.09
Cc1c(CS(C)(=O)=O)cccc1NCC1CCCCC1	7.16
Cc1cc(C)nc(NC2CC(=O)N(C(C)(C)C)C2)n1 (stereo unspecified)	7.77
Cc1c(CS(C)(=O)=O)cccc1NCCCC1CCCC1	-7.83
Cc1cc(N2CCSCC2)ccc1NC(=O)N(CCO)C1CC1	-5.59
Cc1nnc(C(C)NCC2(c3ccc(F)cc3)CCCCC2)o1 (stereo unspecified)	-5.27
